Assay results: patent publication US11286228B2, “Stilbene derivative and method for preparing same” (Ozchela Inc., priority 2016, dated 2022)
pEC50, pIC50: −log10 of the molar value. Where two headings read alike, the source gives them in different places.

Experiments:
[1] = molecular target: cyclophilin; experiment: Cis-trans isomerase inhibitory activity (chymotrypsin-coupled Suc-AAPF-pNA cleavage, absorbance 390 nm); type: biochemical
Text: Chymotrypsin cleaves a trans-type alanine-proline peptide bond. When Suc-AAPF-pNA (a peptide substrate) and chymotrypsin are mixed, the trans-type peptide substrate is cleaved and the cis-type peptide substrate remains. The remaining cis-type peptide substrate is converted into a trans form by a cis-trans isomerase and is then cleaved again by chymotrypsin. When the cis-trans isomerase is present, chymotrypsin is able to cleave a larger amount of trans-type peptide substrate within a predetermined period of time, from which the activity of the cis-trans isomerase may be determined. The amount of the cleaved trans-type peptide substrate is measured using absorbance at 390 nm. Cyclophilin has cis-trans isomerase activity, and accelerates the cleavage of trans-type peptide substrate by chymotrypsin. When the stilbene derivatives of the present invention were treated together with cyclophilin, the cleavage of the peptide substrate by chymotrypsin was not observed to accelerate. Thereby, the stilbene derivatives of the invention can be concluded to inhibit the activity of cyclophilin.

[2] = tested on: hepatitis C virus; experiment: Antiviral activity in HCV replicon cells (Renilla luciferase); type: cell-based
Method: The antiviral activity of the stilbene derivatives on hepatitis C virus was measured. The replicon cells that stably replicate the hepatitis C virus genome were attached to a culture plate and cultured in a CO2 incubator at 37° C. for 24 hr. The replicon cells cultured for one day were washed with a PBS solution, treated with the compounds of the present invention, and then cultured for 72 hr. The stilbene derivative-treated replicon cells were washed with a cold PBS solution and added with 20 μL of a cell lysis solution so that the cells were lysed in ice for 20 min. 100 μL of a Renilla luciferase substrate was added thereto, after which the luminescence thereof was measured and thus the amount of the hepatitis C virus genome was estimated. The amount of the hepatitis C virus genome in the stilbene derivative-treated replicon cells according to the present invention relative to the amount of the hepatitis C virus genome in dimethylsulfoxide (DMSO)-treated replicon cells is shown.
Compounds 1 to 155 of Tables 1 to 10 may be grouped as follows based on the antiviral activity (EC50) values: […]

[3] = tested on: mitochondria obtained from hepatocytes; experiment: Inhibitory activity on calcium-induced mitochondrial swelling (absorbance 520 nm)
Text: Cyclophilin is a key protein for forming permeability transition pores (PTP) in mitochondria. When permeability transition pores are formed, mitochondria swell, whereby the outer membrane thereof ruptures and thus cell death progresses. Such mitochondrial dysfunction causes many diseases including neurodegenerative diseases, cancer, and the like. Cyclosporine, a known cyclophilin inhibitor, is capable of preventing the formation of permeability transition pores to thus suppress mitochondrial swelling.
The mitochondrial swelling test was performed as follows. Specifically, the hepatocytes were disrupted using a Dounce tissue grinder. The disrupted cells were centrifuged at 700×g for 10 min and the supernatant was transferred into a new tube. The supernatant was centrifuged at 12,000×g for 15 min, thereby obtaining mitochondria.
When the extracted mitochondria were added with calcium, they swelled, which may be observed by measuring the absorbance at 520 nm. The stilbene derivatives are effective at inhibiting mitochondrial swelling due to calcium.
The activity of Compounds 1 to 155 of Tables 1 to 10 on inhibiting mitochondrial swelling may be determined based on IC50 values, and may be grouped as follows: […]

[4] = cyclophilin, chymotrypsin, Suc-AAPF-pNA, read-out: Test Example 1: cis-trans isomerase inhibitory activity (IC50)
[5] = Hepatitis C virus, HCV replicon cells, 72 hr, Renilla luciferase, relative to DMSO, read-out: Test Example 3: antiviral activity (EC50)
[6] = Hepatocyte, calcium-induced swelling of extracted mitochondria, read-out: Test Example 4: inhibiting mitochondrial swelling (IC50)
[7] = HCV replicon cells, 72 hr, Renilla luciferase, relative to DMSO, read-out: Test Example 3: antiviral activity (EC50)
[8] = calcium-induced swelling of extracted mitochondria, read-out: Test Example 4: inhibiting mitochondrial swelling (IC50)
[9] = read-out: Test Example 1: cis-trans isomerase inhibitory activity (IC50) group
[10] = Hepatitis C virus, 72 h, read-out: Test Example 3: antiviral activity (EC50)
[11] = Hepatitis C virus, HCV replicon cells, read-out: Test Example 3: antiviral activity (EC50) group
[12] = Hepatocyte, read-out: Test Example 4: activity on inhibiting mitochondrial swelling (IC50) group

Structure (SMILES) | pIC50 [1, 4] | pEC50 [2, 5] | pIC50 [3, 6] | also measured
COc1ccccc1C=C(C#N)c1ccc(C(=O)C(C)(C)C)cc1 [Compound 14] | 6.70 to 7.70 | 5.30 to 6.30 | 4.30 to 5.30 | 
CCCCOc1ccc(C(C#N)=Cc2ccccc2C(=O)O)cc1 [Compound 19] | 6.70 to 7.70 |  |  | pEC50 [2, 7]: 5.30 to 6.30; pIC50 [3, 8]: 4.30 to 5.30
CCCCOC(=O)c1cccnc1C=Cc1ccc(CC(C)(C)C)cc1 [Compound 148] |  |  |  | pIC50 [1, 9]: 6.70 to 7.70; pEC50 ([2]; HCV replicon cells, read-out: Test Example 3: antiviral activity (EC50) group): 5.30 to 6.30; pIC50 ([3]; read-out: Test Example 4: activity on inhibiting mitochondrial swelling (IC50) group): 4.30 to 5.30
N#CC(=Cc1ccccc1C1CCCCC1)c1ccc([N+](=O)[O-])cc1 [Compound 31] | 6.70 to 7.70 |  |  | pEC50 [2, 10]: 5.30 to 6.30; pIC50 ([3]; Hepatocyte, read-out: Test Example 4: inhibiting mitochondrial swelling (IC50)): 4.30 to 5.30
CCCCOC(=O)c1ccccc1C=Cc1ccc(CC(C)(C)C)cc1CC [Compound 68] | 6.70 to 7.70 | 5.30 to 6.30 | 4.30 to 5.30 | 
CC(C)(C)Cc1ccc(C=Cc2cc(N)ccc2C(=O)O)cc1 [Compound 154] |  |  |  | pIC50 [1, 9]: 6.70 to 7.70; pEC50 [2, 11]: 5.30 to 6.30; pIC50 [3, 12]: 4.30 to 5.30
CCCCOC(=O)c1ccccc1C=C(C)c1ccc(CC(C)(C)C)cc1C [Compound 84] | 6.70 to 7.70 | 5.30 to 6.30 | 4.30 to 5.30 | 
CCCOC(=O)c1ccccc1C=C(C)c1ccc(CC(C)(C)C)cc1 [Compound 87] | 6.70 to 7.70 | 5.30 to 6.30 | 4.30 to 5.30 | 
CC(C)(C)Cc1ccc(C=Cc2cccc(N)c2C(=O)O)cc1 [Compound 137] | ≥ 7.70 | > 6.30 | > 5.30 | 
CC(C)OC(=O)c1ccccc1C=Cc1ccc(CC(C)(C)C)cc1 [Compound 73] | ≥ 7.70 | > 6.30 | > 5.30 | 
CCCCOC(=O)c1ccncc1C=Cc1ccc(CC(C)(C)C)cc1 [Compound 147] |  |  |  | pIC50 [1, 9]: 6.70 to 7.70; pEC50 [2, 11]: 5.30 to 6.30; pIC50 [3, 12]: 4.30 to 5.30
CCCCCOC(=O)c1ccccc1C=C(Cl)c1ccc(CC(C)(C)C)cc1 [Compound 117] | ≥ 7.70 | > 6.30 | > 5.30 | 
CC(C)(Cc1ccc(C(C#N)=Cc2ccccc2C(=O)O)cc1)CC1CC1 [Compound 63] | 6.70 to 7.70 | 5.30 to 6.30 | 4.30 to 5.30 | 
CCCCOC(=O)c1ccccc1C=Cc1ccc(CC2CCCC2)cc1 [Compound 79] | 6.70 to 7.70 | 5.30 to 6.30 | 4.30 to 5.30 | 
COC(=O)c1ccccc1C=Cc1ccc(CC2CCCC2)cc1 [Compound 126] | 6.70 to 7.70 | 5.30 to 6.30 | 4.30 to 5.30 | 
CC(C)OC(=O)c1ccccc1C=C(N)c1ccc(CC(C)(C)C)cc1 [Compound 104] | 6.70 to 7.70 | 5.30 to 6.30 | 4.30 to 5.30 | 
CCCCOC(=O)c1cc(C)ccc1C=C(I)c1ccc(CC(C)(C)C)cc1 [Compound 115] | ≥ 7.70 | > 6.30 | > 5.30 | 
CCCCOC(=O)c1ccccc1C=C(N)c1ccc(CC2CCCC2)cc1 [Compound 109] | 6.70 to 7.70 | 5.30 to 6.30 | 4.30 to 5.30 | 
CCCCOC(=O)c1ccccc1C=C(C)c1ccc(CC(C)(C)C)cc1 [Compound 82] | 6.70 to 7.70 | 5.30 to 6.30 | 4.30 to 5.30 | 
CCCCOC(=O)c1cccc(C(=O)OCCCC)c1C=Cc1ccc(CC(C)(C)C)cc1 [Compound 149] |  |  |  | pIC50 [1, 9]: 6.70 to 7.70; pEC50 [2, 11]: 5.30 to 6.30; pIC50 [3, 12]: 4.30 to 5.30
CC(C)(C)Cc1ccc(C(N)=Cc2ccccc2C(=O)OC2CCCCC2)cc1 [Compound 107] | 6.70 to 7.70 | 5.30 to 6.30 | 4.30 to 5.30 | 
CCOc1ccc(C(C#N)=Cc2ccccc2OC)cc1 [Compound 16] | 5.70 to 6.70 | 4.30 to 5.30 | 3.30 to 4.30 | 
CCC(C)c1ccc(C(C#N)=Cc2ccccc2C(=O)O)cc1 (stereo not drawn) [Compound 9] | 6.70 to 7.70 |  |  | pEC50 [2, 7]: 5.30 to 6.30; pIC50 [3, 8]: 4.30 to 5.30
CCCCOC(=O)c1cc(C)ccc1C=C(C)c1ccc(CC(C)(C)C)cc1 [Compound 85] | 6.70 to 7.70 | 5.30 to 6.30 | 4.30 to 5.30 | 

Structure (SMILES) | pIC50 [1, 4] | pEC50 [2, 5] | pIC50 [3, 6] | also measured
CN(C)c1ccccc1C=C(C#N)c1ccc([N+](=O)[O-])cc1 [Compound 7] | 5.70 to 6.70 | 4.30 to 5.30 | 3.30 to 4.30 | 
CC(=Cc1ccccc1C(=O)OCC1CCCCN1)c1ccc(CC(C)(C)C)cc1 (stereo not drawn) [Compound 91] | 6.70 to 7.70 | 5.30 to 6.30 | 4.30 to 5.30 | 
CCCCOC(=O)c1ncccc1C=Cc1ccc(CC(C)(C)C)cc1 [Compound 145] | 6.70 to 7.70 | 5.30 to 6.30 | 4.30 to 5.30 | 
CC(C)(C)Cc1ccc(C=Cc2cccc(O)c2C(=O)O)cc1 [Compound 135] | ≥ 7.70 | > 6.30 | > 5.30 | 
CCCCc1ccc(C(C#N)=Cc2ccccc2C(=O)O)cc1 [Compound 8] | 6.70 to 7.70 |  |  | pEC50 [2, 7]: 5.30 to 6.30; pIC50 [3, 8]: 4.30 to 5.30
CC(=Cc1ccccc1C(=O)OCC1CCCCC1)c1ccc(CC(C)(C)C)cc1 [Compound 90] | 6.70 to 7.70 | 5.30 to 6.30 | 4.30 to 5.30 | 
CCCCOC(=O)c1c(C)cccc1C=C(Cl)c1ccc(CC(C)(C)C)cc1 [Compound 113] | ≥ 7.70 | > 6.30 | > 5.30 | 
CCCCOC(=O)c1c(C)cccc1C=C(N)c1ccc(CC(C)(C)C)cc1 [Compound 99] | 6.70 to 7.70 | 5.30 to 6.30 | 4.30 to 5.30 | 
CC(C)OC(=O)c1ccccc1C=C(Br)c1ccc(CC(C)(C)C)cc1 [Compound 118] | ≥ 7.70 | > 6.30 | > 5.30 | 
CC(C)(C)Cc1ccc(C(Cl)=Cc2ccccc2C(=O)OC2CCCCC2)cc1 [Compound 121] | ≥ 7.70 | > 6.30 | > 5.30 | 
COC(=O)c1ccccc1C=Cc1ccc(CC2CCCCC2)cc1 [Compound 127] | 6.70 to 7.70 | 5.30 to 6.30 | 4.30 to 5.30 | 
CC(C)c1ccc(C(C#N)=Cc2ccccc2C(=O)O)cc1 [Compound 5] | 5.70 to 6.70 | 4.30 to 5.30 | 3.30 to 4.30 | 
N#CC(=Cc1ccccc1C(=O)O)c1ccc(CCC2CCCCC2)cc1 [Compound 60] | ≥ 7.70 | > 6.30 | > 5.30 | 
N#CC(=Cc1ccccc1CCc1cccc(Cl)c1)c1ccc([N+](=O)[O-])cc1 [Compound 47] | 6.70 to 7.70 | 5.30 to 6.30 | 4.30 to 5.30 | 
N#CC(=Cc1ccccc1C(=O)O)c1ccc(CC2CCCCC2)cc1 [Compound 59] | ≥ 7.70 | > 6.30 | > 5.30 | 
CC(C)(C)c1ccc(CCc2ccccc2C=C(C#N)c2ccc([N+](=O)[O-])cc2)cc1 [Compound 45] | 6.70 to 7.70 | 5.30 to 6.30 | 4.30 to 5.30 | 
CCCCOC(=O)c1ccccc1C=C(C)c1ccc(Cc2ccccc2)cc1 [Compound 97] | 6.70 to 7.70 |  | 4.30 to 5.30 | pEC50 [2, 10]: 5.30 to 6.30
CN1CCN(c2ccccc2C=C(C#N)c2ccc([N+](=O)[O-])cc2)CC1 [Compound 25] | 5.70 to 6.70 | 4.30 to 5.30 | 3.30 to 4.30 | 
CCCCOC(=O)c1ccccc1C=Cc1ccc(CC(C)(C)C)nc1 [Compound 144] | 6.70 to 7.70 | 5.30 to 6.30 | 4.30 to 5.30 | 
CCCCOC(=O)c1ccccc1C=C(Br)c1ccc(CC(C)CC)cc1 (stereo not drawn) [Compound 122] | 6.70 to 7.70 | 5.30 to 6.30 | 4.30 to 5.30 | 
COc1ccccc1C=C(C#N)c1ccc(Cc2ccccc2)cc1 [Compound 20] | ≥ 7.70 | > 6.30 | > 5.30 | 
Cc1ccc(C=Cc2ccc(CC(C)(C)C)cc2)c(C(=O)O)c1 [Compound 140] | ≥ 7.70 | > 6.30 | > 5.30 | 
CC(C)CCc1ccccc1C=C(C#N)c1ccc([N+](=O)[O-])cc1 [Compound 36] | 6.70 to 7.70 | 5.30 to 6.30 | 4.30 to 5.30 | 
